Experimental data from PMC12616683, “In Vivo Atlas of Neuroprotective Cyclic Dipeptides Derived from Food Gelatin Using Peptidomics and Feature-Based Molecular Networking” (Journal of Agricultural and Food Chemistry, 2025).
Values joined by “and” are separate entries in the source; they are usually repeats but may differ in a detail not shown here. Identical values can stand only once. Peptide text beside a SMILES is read from it.

Legend:
HT-22 cells = conditions: 20 mM Glu, 24 h
Procedure: HT-22 cells were cultured in DMEM medium with 10% fetal bovine serum (Gibco), 1% penicillin, and streptomycin (Gibco) at 37 °C. HT-22 cells were seeded at a density of 1 × 10^4 cells per well in 96-well plates and cultured in DMEM medium containing 10% fetal bovine serum and 1% penicillin–streptomycin at 37 °C with 5% CO2.

[1] = parameters: method as in number not printed ("It was reported"); conditions: linear dipeptide; ref number not printed ("It was reported"); cited from earlier work
[2] = parameters: method as in number not printed ("A study in humans"); conditions: humans; ref number not printed ("A study in humans"); cited from earlier work
[3] = parameters: method as in number not printed ("the literature reports"); conditions: mice; ref number not printed ("the literature reports"); cited from earlier work
[4] = Serum pharmacokinetics of CDPs after oral administration of DHG (targeted LC-MS, noncompartmental analysis); conditions: for AUC0–24h / C max / T max: serum, mice
Glu-induced HT-22 cells = assay: Neuroprotection in Glu-injured HT-22 cells (CCK-8 cell viability); conditions: for Cell viability(%) in Glu-induced HT-22 cells: Glu-only model (0 μM) 40.759±1.939; for cell viability in Glu-injured HT-22 cells: 50 μM (stated for cyclo(Hyp-Ala)), 4 h pretreatment, then 20 mM Glu 24 h, model group 40.759 ± 1.939%
H2O2-induced HT-22 cells = assay: Neuroprotection in H2O2-injured HT-22 cells (CCK-8 cell viability); conditions: for Cell viability(%) in H2O2-induced HT-22 cells: compound 50 μM, H2O2-only model (0 μM) 48.645±0.347
[5] = Concentrations of CDPs in stomach, small intestine and cecum contents after oral DHG (targeted spatiotemporal metabolomics); format: in vivo, C57 mice
Procedure: The supernatant was dried using N2.
For gastrointestinal content analysis, freeze-dried powders (1 mg each) of stomach, small intestine, and cecum contents collected over the 0–24 h postadministration period were accurately weighed. The samples were extracted using the same pretreatment procedure as applied for DHG, namely, ultrasonication with 75% methanol for 30 min at room temperature, followed by centrifugation (13,500 rpm, 10 min). The supernatants were collected, dried under nitrogen, and reconstituted in 75% methanol for LC–MS analysis. Quantitation was performed against the 12-point calibration curves established above, ensuring consistency with the DHG quantitation workflow. Samples from different time points were analyzed individually to characterize the temporal distribution of CDPs within each gastrointestinal compartment.

[6] = FBMN analysis of short peptides in small intestine contents and serum after oral DHG; conditions: serum, time points 0.5-4 h after oral DHG

| SMILES | AUC0–24h ([4]; oral DHG 1000 mg/kg) | C max ([4]; oral DHG 1000 mg/kg) [ng/mL] | T max ([4]; oral DHG 1000 mg/kg) [h] | Cell viability(%) in Glu-induced HT-22 cells (Glu-induced HT-22 cells; compound 25 μM) [%] | Cell viability(%) in Glu-induced HT-22 cells (Glu-induced HT-22 cells; compound 50 μM) [%] | Cell viability(%) in H2O2-induced HT-22 cells (H2O2-induced HT-22 cells) [%] | cell viability in Glu-injured HT-22 cells (Glu-induced HT-22 cells) [% cell viability] | also measured |
| --- | --- | --- | --- | --- | --- | --- | --- | --- |
| N[C@@H](CCC(=O)O)C(=O)O [Glu, Glutamate] | – | – | – | – | – | – | – | HT22 cell viability after Glu exposure (HT-22 cells): 40–60% |
| NCC(=O)N1CCC[C@H]1C(=O)O [Gly-Pro] (H-Gly-Pro-OH) | – | – | – | – | – | – | – | time to decrease to a negligible level after oral administration [1]: ≤ 1 h; T max, C max, and AUC0–4h compared with cyclo(Gly-Pro) [2]: lower |
| O=C(O)[C@@H]1C[C@@H](O)CN1C(=O)[C@@H]1CCCN1 [Pro-Hyp] (HELM PEPTIDE1{P.[Hyp]}$$$$V2.0) | – | – | – | – | – | – | – | time to drop to basal levels [3]: ≤ 3 h |
| O=C1NCC(=O)N2CCC[C@@H]12 [cyclo(Gly-Pro)] | 15547.0170 ng·h/mL | 4259.0300 | 1 | 54.865±0.079 | 58.506±3.833 | 53.985±7.459 | – | time remained detectable in serum ([4]; serum/blood after oral DHG, sampled to 24 h): 12 h |
| CC1NC(=O)C2CC(O)CN2C1=O (centres unmarked) [cyclo(Hyp-Ala)] | 2561.8131 ng·h/mL | 400.1572 | 1 | 54.245±1.226 | – | – | 70.614 ± 4.85 | cell viability in H2O2-injured HT-22 cells (H2O2-induced HT-22 cells; 50 μM, 4 h pretreatment, then 400 μM H2O2 24 h): 68.515 ± 2.290% |
| O=C1NCC(=O)N2CC(O)CC12 (centres unmarked) [cyclo(Hyp-Gly), cyclo(Gly-Hyp)] | 7371.695 ng·h/mL and 7371.6951 ng·h/mL | 683.7471 | 2 | 61.970±4.223 | 53.703±1.518 | 62.961±1.166 | 63.703 ± 1.518 | concentration in the cecum ([5]; cecum contents at 8 h): 358.966 ng/g; cecum concentration at 8 h compared with peak levels in stomach and small intestine [5]: surpassed the peak levels observed in the stomach and small intestine; concentration in the small intestine ([5]; small intestine contents at 1 h): 354.578 ng/g; concentration in the stomach ([5]; stomach contents at 0.5 h): 265.229 ng/g; C max ([4]; oral DHG): 684 ng/mL |
| CC(C)CC1NC(=O)C2CC(O)CN2C1=O (centres unmarked) [cyclo(Hyp-Leu)] | 301.1580 ng·h/mL | 110.4803 | 0.5 | 53.193±5.729 | 53.590±3.417 | 60.867±9.188 | – | time detected in serum (FBMN) [6]: 0.5 to 4 h |
| O=C1N[C@@H](Cc2ccccc2)C(=O)N2C[C@@H](O)C[C@@H]12 [cyclo(Phe-Hyp)] | 263.2271 ng·h/mL | 51.2931 | 1 | 56.084±2.124 | – | 63.241±3.395 | 60.206 ± 4.409 | cecum concentration at 8 h compared with peak levels in stomach and small intestine [5]: surpassed the peak levels observed in the stomach and small intestine; time detected in serum (FBMN) [6]: 0.5 to 4 h |
